One may read the Ki as the equilibrium dissociation constant of an inhibitor or competing ligand from its target.

The structures appear in SMILES notation.

This assay concerns the target human α5β3γ2 receptors (α5-GABAA receptor) (Homo sapiens (Human), UniProt P18507+P31644). Description: 3H-flunitrazepam competition binding, human α5β3γ2 GABAA receptor. The following applies: HEK293 cell membranes, 1 nM 3H-flunitrazepam; read-out: α5-GABAAR Ki. The method, then: The affinity of the compound to each subtype of GABAA receptor was determined by competing for the binding of ^3H-flunitrazepam to HEK293 cells stably expressing human α1β3γ2, α2β3γ2, α3β3γ2, and α5β3γ2 receptors.
The cells were suspended in 50 mM Tris-HCl buffer (pH=7.4), homogenized 10 times on ice with a homogenizer for 20 seconds, and centrifuged at 1000 g for 10 minutes at 4° C. The supernatant was collected, and the above steps were repeated. The supernatant was centrifuged at 4° C. (33800 g; Thermo, rotor: A27-8×50) for 60 minutes, and the precipitate was resuspended in Tris buffer (50 mM Tris-HCl, 10 mM MgCl2, 0.5 mM EDTA, 10% glycerol). Protein was measured (BCA method, Pierce), and 1 mL aliquots were prepared and stored at −80° C.
The radioligand competition binding assay was performed in a 200 μL system (96-well plate) containing 100 μL of cell membrane. The concentration of ^3H-flunitrazepam was 1 nM and the concentration of the test compound was in the range of […]. Flumazenil was used as a control. 1 μL of 2 mM flumazenil (final concentration […]) was added to the low signal control well (Low control, LC), and 1 μL of DMSO was added to the high signal control well (High control, HC). The final concentration of target membrane protein was […]. All test compound sample storage solutions were 10 mM. The working concentration of the samples was to dilute all the samples to 0.2 mM with DMSO, followed by 4-fold serial gradient dilutions for a total of 8 concentration gradients. The 96-well plate was sealed with a sealing film, and then incubated on a shaker at room temperature for 1 hour. At the same time, the GF/C filter plate was soaked in soaking buffer (0.3% PEI, stored at 4° C.) for at least 0.5 hours. After the binding incubation was completed, the cells were collected onto a GF/C filter plate using a cell harvester. The plate was washed four times with washing buffer (50 mM Tris-HCl, pH 7.4, stored at 4° C.). After drying in a 50° C. oven for 1 hour, the bottom of the dried GF/C filter plate was sealed. The residual radioactivity on the filter membrane was detected using liquid scintillation counting. 50 μL of scintillation fluid was added to each well, and the plate was sealed. The readings were taken using a Microbeta2. The inhibitory activity of the test sample on the binding of ^3H-flunitrazepam to GABAA receptor membrane proteins was calculated, and the IC50 of each test sample was calculated by dose-effect curve fitting (GraphPad Prism 5 software), and the Ki of the sample was calculated from the IC50, thus evaluating the binding ability of the sample to the various subtypes of GABAA receptors.
Take `Cc1nnn(-c2ccc(C#N)cc2)c1COc1ccc(N2CCNC(=O)C2)nn1` [Example 75, 4-(6-((1-(4-Cyanophenyl)-4-methyl-1H-1,2,3-triazol-5-yl)methoxy)pyridazin-3-yl)piperazin-2-one]: the Ki was 40.2 nM.
On to `Cc1nnn(-c2ccc(CO)cc2)c1COc1ccc(N2CCNC(=O)C2)nn1` [Example 79, 4-(6-((1-(4-(hydroxymethyl)phenyl)-4-methyl-1H-1,2,3-triazol-5-yl)methoxy)pyridazin-3-yl)piperazin-2-one], for which the Ki was 32.5 nM.
Next, `Cc1cc(N2CCNC(=O)C2)nnc1OCc1c(C)nnn1-c1ccc(C(F)F)cc1` [Example 81, 4-(6-((1-(4-(Difluoromethyl)phenyl)-4-methyl-1H-1,2,3-triazol-5-yl)methoxy)-5-methylpyridazin-3-yl)piperazin-2-one]: 0.56 nM.
With `Cc1cc(OCc2c(C)nnn2-c2ccc(C(F)F)cc2)nnc1N1CCNC(=O)C1` [Example 82, 4-(6-((1-(4-(Difluoromethyl)phenyl)-4-methyl-1H-1,2,3-triazol-5-yl)methoxy)-4-methylpyridazin-3-yl)piperazin-2-one], the inhibition constant (Ki) came to 0.63 nM.
On to `O=C1CN(c2ccc(OCc3c(C4CC4)nnn3-c3ccc(C(F)F)cc3)nn2)CCN1` [Example 83, 4-(6-((4-Cyclopropyl-1-(4-(difluoromethyl)phenyl)-1H-1,2,3-triazol-5-yl)methoxy)pyridazin-3-yl)piperazin-2-one], for which the Ki is 2.6 nM.
Next, `Cc1nnn(-c2ccc(C(F)F)cc2)c1COc1ccc(N2CCn3cnnc3C2)nn1` [Example 84, 7-(6-((1-(4-(Difluoromethyl)phenyl)-4-methyl-1H-1,2,3-triazol-5-yl)methoxy)pyridazin-3-yl)-5,6,7,8-tetrahydro-[1,2,4]triazolo[4,3-a]pyrazine]: 0.6 nM; `Cc1nnn(-c2ccc(C(F)F)cc2)c1COc1ccc(N2CCCC3(COC3)C2)nn1` [Example 85, 6-(6-((1-(4-(Difluoromethyl)phenyl)-4-methyl-1H-1,2,3-triazol-5-yl)methoxy)pyridazin-3-yl)-2-oxa-6-azaspiro[3.5]nonane]: 2.24 nM.
Next, `Cc1nnn(-c2ccc(C(F)F)cc2)c1COc1ccc(N2CC3(CCNC3=O)C2)nn1` [Example 86, 2-(6-((1-(4-(Difluoromethyl)phenyl)-4-methyl-1H-1,2,3-triazol-5-yl)methoxy)pyridazin-3-yl)-2,6-diazaspiro[3.4]octan-5-one]: 8.31 nM; `Cc1nnn(-c2ccc(C(F)F)cc2)c1COc1ccc(N2CC3(CNC(=O)C3)C2)nn1` [Example 87, 2-(6-((1-(4-(Difluoromethyl)phenyl)-4-methyl-1H-1,2,3-triazol-5-yl)methoxy)pyridazin-3-yl)-2,6-diazaspiro[3.4]octan-7-one]: 3.46 nM; `CC(=O)NC1CCN(c2ccc(OCc3c(C)nnn3-c3ccc(C(F)F)cc3)nn2)C1` (stereo not drawn) [Example 88, N-(1-(6-((1-(4-(Difluoromethyl)phenyl)-4-methyl-1H-1,2,3-triazol-5-yl)methoxy)pyridazin-3-yl)pyrrolidin-3-yl)acetamide]: 1.78 nM.
For the compound `Cc1nnn(-c2ccc(C(F)F)cc2)c1COc1ccc(N2CC(=O)N3CCN(CC(F)(F)F)CC3C2)nn1` (stereo not drawn) [Example 91, 2-(6-((1-(4-(Difluoromethyl)phenyl)-4-methyl-1H-1,2,3-triazol-5-yl)methoxy)pyridazin-3-yl)-8-(2,2,2-trifluoroethyl)octahydro-4H-pyrazino[1,2-a]pyrazin-4-one], the Ki came to 1.13 nM.
Next, `Cc1nnn(-c2ccc(C(F)F)cc2)c1COc1ccc(N2CCN(Cc3ncccn3)C(=O)C2)nn1` [Example 93, 4-(6-((1-(4-(Difluoromethyl)phenyl)-4-methyl-1H-1,2,3-triazol-5-yl)methoxy)pyridazin-3-yl)-1-(pyrimidin-2-ylmethyl)piperazin-2-one]: 3.14 nM; `Cc1nnn(-c2ccc(F)cc2)c1COc1ccc(N2CCN(CC(F)(F)F)C(=O)C2)nn1` [Example 94, 4-(6-((1-(4-Fluorophenyl)-4-methyl-1H-1,2,3-triazol-5-yl)methoxy)pyridazin-3-yl)-1-(2,2,2-trifluoroethyl)piperazin-2-one]: 44.3 nM.
Consider `Cc1nnn(-c2ccc(C(F)F)cc2)c1COc1ccc(N2CC(C(=O)Nc3ccnn3C)C2)nn1` [Example 102, 1-(6-((1-(4-(Difluoromethyl)phenyl)-4-methyl-1H-1,2,3-triazol-5-yl)methoxy)pyridazin-3-yl)-N-(1-methyl-1H-pyrazol-5-yl)azetidine-3-carboxamide], for which the inhibition constant (Ki) was found to be 2.14 nM.
In the case of `Cc1nnn(-c2ccc(C(F)F)cc2)c1COc1ccc(N2CCOC3(CCS(=O)(=O)C3)C2)nn1` (stereo not drawn) [Example 105, 9-(6-((1-(4-(Difluoromethyl)phenyl)-4-methyl-1H-1,2,3-triazol-5-yl)methoxy)pyridazin-3-yl)-6-oxa-2-thia-9-azaspiro[4.5]decane 2,2-dioxide], the inhibitory constant (Ki) worked out at 1.24 nM.
On to `Cc1nnn(-c2ccc(C(F)F)cc2)c1COc1ccc(N2CCCN(S(C)(=O)=O)CC2)nn1` [Example 106, 1-(6-((1-(4-(Difluoromethyl)phenyl)-4-methyl-1H-1,2,3-triazol-5-yl)methoxy)pyridazin-3-yl)-4-(methylsulfonyl)-1,4-diazepane], for which the Ki was 7.39 nM.
On to `Cc1nnn(-c2ccc(C(F)F)cc2)c1COc1ccc(N2CCN(CCN3CCC(F)(F)CC3)C(=O)C2)nn1` [Example 109, 4-(6-((1-(4-(Difluoromethyl)phenyl)-4-methyl-1H-1,2,3-triazol-5-yl)methoxy)pyridazin-3-yl)-1-(2-(4,4-difluoropiperidin-1-yl)ethyl)piperazin-2-one], for which the inhibition constant Ki was 1.53 nM.
Consider `Cc1nnn(-c2ccc(C(F)F)cc2)c1COc1ccc(N2CCN(c3cnn(C)c3)C(=O)C2)nn1` [Example 111, 4-(6-((1-(4-(Difluoromethyl)phenyl)-4-methyl-1H-1,2,3-triazol-5-yl)methoxy)pyridazin-3-yl)-1-(1-methyl-1H-pyrazol-4-yl)piperazin-2-one], for which the Ki came to 0.93 nM.
As to `Cc1nnn(-c2ccc(C(F)F)cc2)c1COc1ccc(N2CCN(c3ccn(C)n3)C(=O)C2)nn1` [Example 112, 4-(6-((1-(4-(Difluoromethyl)phenyl)-4-methyl-1H-1,2,3-triazol-5-yl)methoxy)pyridazin-3-yl)-1-(1-methyl-1H-pyrazol-3-yl)piperazin-2-one], the Ki amounted to 0.81 nM.
`Cc1nnn(-c2ccc(C(F)F)cc2)c1COc1ccc(N2CCN(c3cnn(C(F)F)c3)C(=O)C2)nn1` [Example 113, 1-(1-(Difluoromethyl)-1H-pyrazol-4-yl)-4-(6-((1-(4-(difluoromethyl)phenyl)-4-methyl-1H-1,2,3-triazol-5-yl)methoxy)pyridazin-3-yl)piperazin-2-one]: the inhibition constant (Ki) stood at 1.17 nM.
As for `CCNC(=O)C12CC(CN1c1ccc(OCc3c(C)nnn3-c3ccc(C(F)F)cc3)nn1)C2` [Example 115, 2-(6-((1-(4-(Difluoromethyl)phenyl)-4-methyl-1H-1,2,3-triazol-5-yl)methoxy)pyridazin-3-yl)-N-ethyl-2-azabicyclo[2.1.1]hexane-1-carboxamide], the Ki came to 1.25 nM.
The same measure for `Cc1nnn(-c2ccc(C(F)F)cc2)c1COc1ccc(N2CCN3CC(=O)NC(=O)[C@@H]3C2)nn1` [Example 117, (S)-8-(6-((1-(4-(Difluoromethyl)phenyl)-4-methyl-1H-1,2,3-triazol-5-yl)methoxy)pyridazin-3-yl)hexahydro-1H-pyrazino[1,2-a]pyrazin-1,3-(2H)-dione]: 4.87 nM.
Take `Cc1nnn(-c2ccc(C(F)F)cc2)c1COc1ccc(N2CCN3C(=O)NC(=O)[C@@H]3C2)nn1` [Example 118, (S)-7-(6-((1-(4-(Difluoromethyl)phenyl)-4-methyl-1H-1,2,3-triazol-5-yl)methoxy)pyridazin-3-yl)tetrahydroimidazo[1,5-a]pyrazine-1,3(2H,5H)-dione]: the Ki turned out to be 1.66 nM.
For `Cc1nnn(-c2ccc(C(F)F)cc2)c1COc1ccc(N2CCN3CCCNC(=O)[C@@H]3C2)nn1` [Example 120, (S)-2-(6-((1-(4-(Difluoromethyl)phenyl)-4-methyl-1H-1,2,3-triazol-5-yl)methoxy)pyridazin-3-yl)octahydropyrazino[1,2-a][1,4]diaza-10(2H)-one], the inhibition constant (Ki) worked out at 27.2 nM.
